Source: US20240165231A1, “CAR-T DELIVERY OF SYNTHETIC PEPTIDE THERAPEUTICS” (THE TRUSTEES OF THE UNIVERSITY OF PENNSYLVANIA, priority 2021, published 2024)
“Also recorded” adds a separate entry of the source.

How the values were obtained:
TSA breast cancer cells = assay: PD-L1 as readout of DNA damage response after liposomal PARPi mimetic peptides; assay type: cell-based; conditions: peptides in liposomes, 48 hours, flow cytometry
Procedure: PARP inhibitor peptides were computationally designed using methods as described in Example 2. Resulting PARP inhibitor (PARPi) mimetic peptides were encapsulated in liposomes and transfected into TSA breast cancer cells in vitro. 48 hours later, PD-L1 was assessed by flow cytometry as a readout of a DNA damage response. […] The PARP inhibitor olaparib was used as a positive control. […] In embodiments, the PARPi mimetic peptides may be introduced into a CAR construct for delivery to the tumor microenvironment via an engineered CAR-T cell.

STING [1] = assay: BMDC stimulation with liposome-encapsulated STING peptides, CD86 as surrogate for STING activity; assay type: cell-based, mouse; conditions: peptides in liposomes, 48 hours, flow cytometry
Procedure: Six cGAMP mimetic peptides (also referred to herein as STING peptides) were selected to test for activity. […] BDMCs were prepared by harvesting bone marrow from mouse hindlimbs and culturing in media (RPMI+10% FBS in 30 ng/mL GM-CSF) for 4 days. BMDCs were then stimulated with potential STING agonist peptides encapsulated in liposomes (Lipofectamine 2000) and returned to culture with GM-CSF for 48 hours. BMDCs were then evaluated for expression of CD86 by flow cytometry as a surrogate for STING activity. A schematic of the study design is provided in the left panel of FIG. 15.

STING [2] = assay: ST2-stimulated, Ova-loaded BMDCs (WT or STING KO) co-cultured with OT-I T cells; assay type: cell-based, mouse; conditions: for OT-I T cell Granzyme B / OT-I T cell IFNγ / OT-I T cell Ki67: 48 hours
Procedure: Activity of the STING agonist peptide ST2 was further characterized. BMDCs from wild type (WT) or STING knock-out (KO) mice were prepared as described above. Following stimulation with ST2, cells were loaded with Ova (SIINFEKL) peptide and then extensively washed to remove residual peptide. OT-I T cells specific for the Ova peptide were then added to BMDC cultures to assess DC activity and ability to stimulate CD8 T cell responses. OT-I T cell expression of Granzyme B (an indicator of cell killing activity), Ki67 (an indicator of cell proliferation), and IFNγ were assessed by flow cytometry 48 hours later.

B16 cells = assay: Cell death after liposomal SMACm6 with or without TNF; assay type: cell-based
Procedure: SMAC peptides were generated using a rational design strategy. Peptides with the best binding and potency (as measured by induction of cell death) in a dose response assay were selected for testing. SMAC mimetic peptide compositions were encapsulated in liposomes and transfected into B16 or KP (lung adenocarcinoma) cells in vitro at various concentrations in the presence of 20 ng/mL of TNF. 24 hours later, cell death was assessed by flow cytometry. Peptide 6 (SMACm6; SEQ ID NO: 8) was selected for further analysis based on dose response in multiple cell lines.
The SMACm6 mimetic peptides were encapsulated in liposomes and transfected into B16 or KP cells in vitro at various concentrations with or without 20 ng/mL TNF.

| Substance | PD-L1 expression (TSA breast cancer cells) | CD86 expression in BMDCs (STING [1]) | also measured |
| --- | --- | --- | --- |
| APLPP [Pep1] | increased PD-L1 expression |  |  |
| VPHPP [Pep3] | increased PD-L1 expression |  |  |
| LFILSG [ST2] |  | increased CD86 expression in BMDCs at statistically significant levels over negative control; also recorded: highest CD86 expression of the peptides tested | OT-I T cell Granzyme B (STING [2]; STING KO BMDCs): not significantly increased over liposome-only controls; OT-I T cell IFNγ (STING [2]; STING KO BMDCs): not significantly increased over liposome-only controls; OT-I T cell Ki67 (STING [2]; STING KO BMDCs): not significantly increased over liposome-only controls; OT-I T cell Granzyme B (STING [2]; WT BMDCs): significantly increased; OT-I T cell IFNγ (STING [2]; WT BMDCs): significantly increased; OT-I T cell Ki67 (STING [2]; WT BMDCs): significantly increased; STING dependence of T cell activation (STING [2]; WT versus STING KO): requires the STING pathway; also recorded: STING dependent |
| LFIKP [ST5] |  | increased CD86 expression in BMDCs at statistically significant levels over negative control |  |
| IFEFPG [ST1] |  | increased CD86 expression in BMDCs at statistically significant levels over negative control |  |
| MFEYG [ST4] |  | increased CD86 expression in BMDCs at statistically significant levels over negative control |  |
| CIFEFPGC [ST1C] |  | increased CD86 expression in BMDCs at statistically significant levels over negative control |  |
| AVPIGGGGGGGGGGGGGGGIPVA [SMACm6] |  |  | relative cell death (B16 cells; absence of TNF): no cell death was observed; relative cell death (B16 cells; presence of 20 ng/mL TNF, increasing concentrations): increasing relative cell death; TNF dependence of cell death induction (B16 cells; presence or absence of TNF): dependent on TNF signaling |
| APLGG [Pep2] | increased PD-L1 expression |  |  |
| CAPLPPC [Pep1C] | increased PD-L1 expression |  |  |
| TFEYSG [ST3] |  | increased CD86 expression in BMDCs at statistically significant levels over negative control |  |
